Earlier results in patent US8637078B2, “Bilayer tablet comprising telmisartan and diuretic” (Boehringer Ingelheim International GmbH, priority 2005, dated 2014).

Experiments:
[1] = composition with 3 to 50 wt. % telmisartan in dissolving matrix (basic agent, surfactant or emulsifier, water-soluble diluent); known from WO 2004/028505
[2] = both polymorphic forms A and B; physiological pH range of the gastrointestinal tract, pH 1 to 7

solubility raised by a factor [1]: several hundred
solubility in aqueous systems [2]: very poor solubility
SMILES: CCCc1nc2c(C)cc(-c3nc4ccccc4n3C)cc2n1Cc1ccc(-c2ccccc2C(=O)O)cc1 [telmisartan, 4′-[2-n-propyl-4-methyl-6-(1-methylbenzimidazol-2-yl)-benzimidazol-1-ylmethyl]-biphenyl-2-carboxylic acid]
